The text below walks through data of PubChem BioAssay (NCI).

What all share (test): inhibition of tumour cell growth, NCI panel, 48 h
Test [1] relates to CAKI-1 renal.
Test [2] relates to KM12 colon.
In test [3] the test system is 786-0 renal.
For test [4], the system named is SK-MEL-2 melanoma.
Test [5] relates to UACC-257 melanoma.
Test [6] has as its system SF-539 CNS.
Test [7] relates to COLO 205 colon.
For test [8], the system named is MDA-MB-435.
Test [9] relates to IGROV1 ovarian.
Test [10] has as its system SN12C renal.

Values joined by “and” are separate entries in the source; they are usually repeats but may differ in a detail not shown here. Equal entries are not always repeated.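 Cells were grown in 96-well plates and exposed to each compound for 48 hours at five concentrations; endpoints were interpolated linearly between bracketing concentrations, or set to the highest concentration if not reached. Here, GI50 denotes the concentration required for 50% inhibition of growth. The concentration for full growth arrest is given as TGI.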

As to `CCCNC(=S)N/N=C(\C)c1ccccn1`, the GI50 in test [1] is 0.22 µM; in test [2], 0.426 µM; in test [3] it was 0.959 µM; in test [4], 3.58 µM; in [5], 0.038 µM; in test [6], 0.847 µM. The GI50 in [7] was 0.04 µM; in [8], 0.53 µM; in test [9] it was below 0.01 µM; in test [10], 0.268 µM. Further, the TGI is above 80.7 µM in test [1]; above 100 µM in test [2]; above 26 µM in [3]; above 100 µM in test [4]; 1.38 µM in test [5]; above 30.9 µM in [6]. Also, the TGI in test [7], in [8], in [9] and in test [10] was above 100 µM in each case.
Turning to `O=C(O)C1C(C(=O)O)C(C(=O)O)C1C(=O)O` (stereo not given), the TGI in test [1], in [2], in test [3], in [4], in test [5] and in test [6] was above 100 µM each time. Moreover, the TGI in [7], in test [8], in [9] and in [10] was above 100 µM in each case.
Consider `Cc1cc(C2CCCCC2)n(O)c(=O)c1`, for which the GI50 in test [1] is 1.8 µM; in test [2], 2.53 µM; in test [3], 2.26 µM; in [4] it was 10.5 µM; in [5], 2.6 µM; in test [6], 2.04 µM. Besides, the GI50 in [7] is 4.46 µM; in [8], 2.27 µM; in test [9] it was 0.989 µM; in test [10], 1.45 µM. For the same molecule, the TGI in test [1] is 21.4 µM; in test [2], above 100 µM; in test [3], above 100 µM; in test [4], > 100 µM and 65.6 µM; in [5] it was 21.9 µM and 8.45 µM; in test [6], 80.9 µM and 93.8 µM. Besides, the TGI in test [7], in [8], in test [9] and in [10] was above 100 µM each time.
In the case of `Cc1[nH]c(N=Nc2ccccc2)nc1N=Nc1ccccc1`, the GI50 in test [1] is 1.04 µM; in test [2] it was 3.98 µM; in [3], 2.75 µM; in test [4], 3.59 µM; in test [5] it was 2.26 µM; in [6], 2.6 µM. Moreover, the GI50 is 2.96 µM in [7], 3.35 µM in test [8], 1.6 µM in test [9] and 3.51 µM in test [10]. Moreover, the TGI was 3.48 µM in test [1]; above 93.2 µM in [2]; 10.2 µM in test [3]; 19.1 µM in test [4]; 5.89 µM in test [5]; 6.93 µM in [6]. Also, the TGI in [7] amounted to 13.1 µM; in [8], 17.9 µM; in [9] it was 5.15 µM; in test [10], 22.4 µM.
For the molecule `COc1cc2c3c(n(CCCBr)c(=O)c2cc1OC)-c1ccc(NC(C)=O)cc1C3=O`, the GI50 was 1.09 µM in [1]; 7.35 µM in test [2]; 5.4 µM in test [3]; 41.4 µM in test [4]; 28.1 µM in test [5]; 3.78 µM in test [6]. For the same molecule, the GI50 is 14.1 µM in [7], 13.9 µM in [8], 10.8 µM in test [9] and 13.9 µM in test [10]. The TGI is 7.21 µM in test [1]; above 100 µM in test [2]; 25.2 µM in test [3]; above 100 µM in [4]; above 100 µM in test [5]; 16.2 µM in test [6]. Besides, the TGI in test [7] was above 100 µM; in [8] it was 78.3 µM; in test [9], above 100 µM; in test [10] it was above 100 µM.
As for `CN1C(NC(=O)c2ccc(Cl)nc2)=NS(=O)(=O)c2cc(Cl)ccc21`, the GI50 in test [1], in test [2], in test [3], in test [4], in test [5] and in [6] was above 100 µM each time. The GI50 in [7], in test [8], in test [9] and in [10] was above 100 µM each time. In addition, the TGI in test [1], in test [2], in test [3], in [4], in test [5] and in test [6] was above 100 µM throughout. The TGI in test [7], in [8], in test [9] and in test [10] was above 100 µM in each case.
Turning to `O=C(C[C@@H](C(=O)NCc1cccc(C(F)(F)F)c1)N1C(=O)[C@@H](N2C(=O)OC[C@@H]2c2ccccc2)[C@H]1/C=C/c1ccccc1)NC1CCN(Cc2ccccc2)CC1`, the GI50 was 14 µM in [1]; 3.93 µM in test [2]; 6.51 µM in [3]; 14.1 µM in test [4]; 17.2 µM in [5]; 2.03 µM in test [6]. In addition, the GI50 in test [7] was 2.48 µM; in [8] it was 2.45 µM; in test [9] it was 13.3 µM; in [10], 9.46 µM. For the same molecule, the TGI in test [1] turned out to be 34.4 µM; in test [2], 16.7 µM; in [3] it was 22.6 µM; in test [4], 30.6 µM; in test [5] it was 33.8 µM; in test [6], 3.98 µM. Moreover, the TGI in [7] is 7.12 µM; in test [8], 7.66 µM; in test [9] it was 32.4 µM; in [10], 30.7 µM.
